The source made the active and inactive calls. The rule behind the calls is not given here.
Experiments:
[1] = biological target: Epidermal growth factor receptor (Homo sapiens) (UniProt P00533); conditions: HEK293, at 50 nM
Description: Inhibition of human recombinant His-tagged wild type EGFR expressed in HEK293 cells at 50 nM using poly[Glu:Tyr] (4:1) as substrate incubated for 60 mins by ELISA relative to control

NCI-H1975 = format: functional, cell-based; conditions: Homo sapiens, NCI-H1975, 72 h
SW480 = format: functional, cell-based; conditions: Homo sapiens, SW480, 72 h
A549 [2] = format: functional, cell-based; conditions: Homo sapiens, A549, 72 h
A-431 = assay: cells; conditions: Homo sapiens, A-431, 72 h
Description: Antiproliferative activity against human A431 cells incubated for 72 hrs by MTT assay

[3] = biological target: Epidermal growth factor receptor (Homo sapiens) (UniProt P00533); assay: Inhibition of EGF-induced EGFR phosphorylation at Y992 in human A431 cells at 0.2 to 5 uM preincubated for 2 hrs followed by EGF treatment and measured after 10 mins by Western blot analysis; format: cell-based
[4] = biological target: Epidermal growth factor receptor (Homo sapiens) (UniProt P00533); assay: Inhibition of EGF-induced EGFR phosphorylation at Tyr-residue in human A549 cells at 0.4 to 10 uM preincubated for 2 hrs followed by EGF treatment and measured after 10 mins by Western blot analysis; format: cell-based
[5] = Drug localization in mitochondria of human A549 cells at 5 uM incubated for 30 mins by Mitotracker red staining based confocal microscopic method; format: ADME; conditions: a549, 0.5 h
[6] = biological target: Epidermal growth factor receptor (Homo sapiens) (UniProt P00533); assay: Inhibition of EGF-induced EGFR phosphorylation at Y1068 in human A431 cells at 0.2 to 5 uM preincubated for 2 hrs followed by EGF treatment and measured after 10 mins by Western blot analysis; format: cell-based
[7] = Drug uptake in human A549 cells at 5 uM incubated for 2 hrs by FACS analysis (reference value: 0%); format: ADME, cell-based; conditions: a549, 2 h
[8] = Drug uptake in human A549 cells at 25 uM incubated for 2 hrs by FACS analysis (reference value: 0%); format: ADME, cell-based; conditions: a549, 2 h
[9] = biological target: Epidermal growth factor receptor (Homo sapiens) (UniProt P00533); assay: Inhibition of EGF-induced EGFR phosphorylation at Y992 in human A549 cells at 0.4 to 10 uM preincubated for 2 hrs followed by EGF treatment and measured after 10 mins by Western blot analysis; format: cell-based
[10] = Drug localization in mitochondria of human A549 cells at 5 uM incubated for 30 mins by Mitotracker green staining based confocal microscopic method; format: ADME; conditions: a549, 0.5 h
[11] = Drug uptake in human A549 cells at 5 uM incubated for 2 hrs by fluorescence microscopic method; format: ADME, cell-based; conditions: a549, 2 h
[12] = biological target: Epidermal growth factor receptor (Homo sapiens) (UniProt P00533); assay: Inhibition of EGF-induced EGFR phosphorylation at Tyr-residue in human A431 cells at 0.2 to 5 uM preincubated for 2 hrs followed by EGF treatment and measured after 10 mins by Western blot analysis; format: cell-based
[13] = biological target: Epidermal growth factor receptor (Homo sapiens) (UniProt P00533); assay: Inhibition of EGF-induced EGFR phosphorylation at Y1068 in human A549 cells at 0.4 to 10 uM preincubated for 2 hrs followed by EGF treatment and measured after 10 mins by Western blot analysis; format: cell-based
[14] = Drug localization in lysosome of human A549 cells at 5 uM incubated for 30 mins by Lysotracker red staining based confocal microscopic method; format: ADME, subcellular; conditions: a549, 0.5 h
[15] = Drug uptake in human A549 cells incubated for 2 hrs by FACS analysis; format: ADME, cell-based; conditions: a549, 2 h
[16] = Drug uptake in human A549 cells at 1 uM incubated for 2 hrs by FACS analysis (reference value: 0%); format: ADME, cell-based; conditions: a549, 2 h
A549 [17] = assay: Induction of cell cycle arrest in human A549 cells assessed as accumulation at S phase at 15 uM incubated for 48 hrs by PI staining based flow cytometric analysis (reference value: 33.67%); format: functional
A549 [18] = assay: Induction of cell cycle arrest in human A549 cells assessed as accumulation at G0/G1 phase at 15 uM incubated for 48 hrs by PI staining based flow cytometric analysis (reference value: 51.73%); format: functional
HCC827 = format: functional, cell-based; conditions: Homo sapiens, HCC827, 72 h
A549 [19] = assay: Induction of cell cycle arrest in human A549 cells assessed as accumulation at G2/M phase at 15 uM incubated for 48 hrs by PI staining based flow cytometric analysis (reference value: 14.36%); format: functional
A549 [20] = assay: Inhibition of cell migration in CM-dil-labelled human A549 cells xenografted in 48 hrs post-fertilization zebrafish embryos at 15 uM incubated for 48 hrs by confocal microscopic method; format: functional, cell-based
A549 [21] = assay: Induction of cell cycle arrest in human A549 cells assessed as accumulation at G2/M phase at 20 uM incubated for 48 hrs by PI staining based flow cytometric analysis (reference value: 14.36%); format: functional
A549 [22] = assay: Induction of cell cycle arrest in human A549 cells assessed as accumulation at S phase at 20 uM incubated for 48 hrs by PI staining based flow cytometric analysis (reference value: 33.67%); format: functional
A549 [23] = assay: Induction of apoptosis in human A549 cells assessed as early apoptotic cells at 20 uM incubated for 48 hrs by annexin V -FITC and PI staining based flow cytometric analysis (reference value: 2.93%); format: functional
A549 [24] = assay: Induction of apoptosis in human A549 cells assessed as viable cells at 20 uM incubated for 48 hrs by annexin V -FITC and PI staining based flow cytometric analysis (reference value: 94.56%); format: functional; conditions: A549, 48 h, read-out: Activity
A549 [25] = assay: Induction of apoptosis in human A549 cells assessed as late apoptotic cells at 20 uM incubated for 48 hrs by annexin V -FITC and PI staining based flow cytometric analysis (reference value: 2.24%); format: functional
A549 [26] = assay: Induction of cell cycle arrest in human A549 cells assessed as accumulation at G0/G1 phase at 20 uM incubated for 48 hrs by PI staining based flow cytometric analysis (reference value: 51.73%); format: functional
A549 [27] = assay: Induction of apoptosis in human A549 cells assessed as necrotic cells at 20 uM incubated for 48 hrs by annexin V -FITC and PI staining based flow cytometric analysis (reference value: 0.27%); format: functional

Sequence of Epidermal growth factor receptor (Homo sapiens) (P00533 whole entry): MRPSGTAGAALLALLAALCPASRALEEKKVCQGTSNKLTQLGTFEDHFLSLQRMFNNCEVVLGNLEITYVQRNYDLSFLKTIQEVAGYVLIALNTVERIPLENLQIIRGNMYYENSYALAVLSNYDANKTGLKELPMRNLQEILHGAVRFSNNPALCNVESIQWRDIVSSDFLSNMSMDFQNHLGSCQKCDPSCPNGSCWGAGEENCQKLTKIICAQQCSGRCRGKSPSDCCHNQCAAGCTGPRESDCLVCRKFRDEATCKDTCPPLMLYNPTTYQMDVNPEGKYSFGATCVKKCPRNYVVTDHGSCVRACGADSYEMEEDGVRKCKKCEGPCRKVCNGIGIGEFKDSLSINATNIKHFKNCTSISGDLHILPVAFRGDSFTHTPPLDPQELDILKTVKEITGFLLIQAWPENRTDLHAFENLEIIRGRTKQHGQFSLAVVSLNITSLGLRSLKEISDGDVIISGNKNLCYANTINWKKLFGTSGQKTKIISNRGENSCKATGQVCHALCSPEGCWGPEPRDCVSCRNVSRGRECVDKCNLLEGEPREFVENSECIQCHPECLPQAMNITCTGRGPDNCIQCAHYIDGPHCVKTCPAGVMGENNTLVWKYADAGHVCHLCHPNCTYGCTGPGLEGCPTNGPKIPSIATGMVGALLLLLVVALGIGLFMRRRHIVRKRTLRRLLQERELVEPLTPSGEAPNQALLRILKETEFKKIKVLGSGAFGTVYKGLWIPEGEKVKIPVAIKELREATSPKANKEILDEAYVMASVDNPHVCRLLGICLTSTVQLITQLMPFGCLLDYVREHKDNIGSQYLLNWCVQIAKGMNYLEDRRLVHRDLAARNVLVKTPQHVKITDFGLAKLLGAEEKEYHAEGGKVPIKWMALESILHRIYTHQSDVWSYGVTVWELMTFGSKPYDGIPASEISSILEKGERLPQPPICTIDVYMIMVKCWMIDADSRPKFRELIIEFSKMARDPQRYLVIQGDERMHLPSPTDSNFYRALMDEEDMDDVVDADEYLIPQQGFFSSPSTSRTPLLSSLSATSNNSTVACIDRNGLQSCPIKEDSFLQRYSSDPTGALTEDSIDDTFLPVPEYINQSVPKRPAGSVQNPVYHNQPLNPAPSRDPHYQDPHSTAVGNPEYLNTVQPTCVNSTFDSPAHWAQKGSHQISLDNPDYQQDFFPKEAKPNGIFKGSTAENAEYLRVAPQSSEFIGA

SMILES | inhibition [1] | IC50 (NCI-H1975) | IC50 (SW480) | IC50 (A549 [2]) | IC50 (A-431) | other results
C#Cc1cccc(Nc2ncnc3cc(N4CCNCC4)c(F)cc23)c1 | < 20% |  |  |  |  | 
C#Cc1cccc(Nc2ncnc3cc(N4CCN(CCOC)CC4)c(F)cc23)c1 |  | 68.1 µM | 19 µM | 19.2 µM | 12.8 µM | 
CCN(CC)CCN1CCN(c2cc3ncnc(Nc4ccc(OCc5cccc(F)c5)c(Cl)c4)c3cc2F)CC1 | > 20% |  |  |  |  | 
C/C=C/c1ccc(Nc2ncnc3cc(N4CCN(CCOC)CC4)c(F)cc23)cc1 |  | > 100 µM | > 100 µM | > 100 µM | 49.2 µM | 
Fc1cccc(COc2ccc(Nc3ncnc4cc(N5CCNCC5)c(F)cc34)cc2Cl)c1 | < 20% |  |  |  |  | inhibition [3]: inactive; inhibition [4]: inactive; Drug uptake [5]: Active; inhibition [6]: inactive; Drug uptake [7]: 99.95%; Drug uptake [8]: 100%; inhibition [9]: inactive; Drug uptake [10]: Active; Drug uptake [11]: Active; inhibition [12]: inactive; inhibition [13]: inactive; Drug uptake [14]: Active; Drug uptake [15]: Dose-dependent effect; Drug uptake [16]: 74.03%
C/C=C/c1ccc(Nc2ncnc3cc(N4CCN(CCN(CC)CC)CC4)c(F)cc23)cc1 | < 20% |  |  |  |  | 
CCN(CC)CCN1CCN(c2cc3ncnc(Nc4ccc(F)c(Cl)c4)c3cc2F)CC1 | < 20% |  |  |  |  | 
COCCN1CCN(c2cc3ncnc(Nc4ccc(OCc5cccc(F)c5)c(Cl)c4)c3cc2F)CC1 |  | > 100 µM | > 100 µM | > 100 µM | > 100 µM | 
C#Cc1cccc(Nc2ncnc3cc(N4CCOCC4)c(F)cc23)c1 |  | > 100 µM | > 100 µM | > 100 µM | > 100 µM | 
CS(=O)(=O)CCNCc1ccc(-c2ccc3ncnc(Nc4ccc(OCc5cccc(F)c5)c(Cl)c4)c3c2)o1 [LAPATINIB] |  |  |  | 14.9 µM |  | Activity (A549 [17]): 22.35%; Activity (A549 [18]): 69.72%; IC50 (HCC827): 0.6 µM; Activity (A549 [19]): 7.66%; inhibition (A549 [20]): Active
COc1cc2ncnc(Nc3ccc(F)c(Cl)c3)c2cc1OCCCN1CCOCC1 [GEFITINIB] |  |  |  |  |  | Activity (A549 [21]): 5.95%; Activity (A549 [22]): 16.98%; Activity (A549 [23]): 7.93%; viability at 20 µM (A549 [24]): 83.3%; Activity (A549 [25]): 7.86%; Activity (A549 [26]): 76.94%; Activity (A549 [27]): 0.95%
C/C=C/c1ccc(Nc2ncnc3cc(N4CCNCC4)c(F)cc23)cc1 | < 20% |  |  |  |  | 
Fc1cccc(COc2ccc(Nc3ncnc4cc(N5CCOCC5)c(F)cc34)cc2Cl)c1 |  | 52.6 µM | 57.5 µM | 71.8 µM | 10.1 µM | 
C#Cc1cccc(Nc2ncnc3cc(N4CCN(CCN(CC)CC)CC4)c(F)cc23)c1 | < 20% |  |  |  |  | 
Fc1ccc(Nc2ncnc3cc(N4CCNCC4)c(F)cc23)cc1Cl | < 20% |  |  |  |  | 
COCCN1CCN(c2cc3ncnc(Nc4ccc(F)c(Cl)c4)c3cc2F)CC1 |  | 49.8 µM | 16.4 µM | 14.4 µM | 12.6 µM | 
Fc1ccc(Nc2ncnc3cc(N4CCOCC4)c(F)cc23)cc1Cl |  | > 100 µM | > 100 µM | > 100 µM | 85.6 µM | 
C/C=C/c1ccc(Nc2ncnc3cc(N4CCOCC4)c(F)cc23)cc1 |  | > 100 µM | > 100 µM | > 100 µM | 64 µM | 

— ChEMBL document CHEMBL4359820, “Enrichment of novel quinazoline derivatives with high antitumor activity in mitochondria tracked by its self-fluorescence” (Eur J Med Chem, 2019)
